From publication PMC12867150, “A fungi-derived cyclic peptide enhances Th9-mediated antitumor immunity by targeting ZAP70 and SREBP1” (The Journal of Clinical Investigation, 2025)
“And” between values parts separate entries of the source, which are not always exact repeats. Identical values can stand only once.

How the values were obtained:
Format in all cases: cell-based, mouse
[1] = system: CD69 on Th9 cells; assay: Flow cytometry of CD69 on Th9 cells in vitro (Figure 5J, 7D); conditions: for CD69 (flow cytometric quantification): Figure 5J, single agent, individual replicates, (n = 5); for CD69 expression: MEK/ERK blockade, even with EpA, result in words
Experimental: (§1) Naive CD4^+ T cells were isolated from the spleens of C57BL/6J or CD45.1^+ OT-II mice using the MojoSort Mouse CD4 Naive T Cell Isolation Kit (BioLegend, catalog 480040), following the manufacturer’s protocol. Purified cells were cultured in RPMI-1640 medium supplemented with 10% FBS, 1% penicillin-streptomycin, and 0.1% β-mercaptoethanol (Gibco, catalog 21985023).
(§2) T cell polarization was initiated under plate-bound anti-CD3 (2 μg/mL, clone 17A2, BioXCell, catalog BE0002) and soluble anti-CD28 (1 μg/mL, clone 37.51, BioXCell, catalog BE0015-1) stimulation, with the addition of cytokines and neutralizing antibodies specific to each subset. For Th9 cells, these included IL-4 (10 ng/mL, Peprotech, catalog 400-04), TGF-β (1 ng/mL, EPOTO Biotech, catalog HF-2021), anti–IL-12 (5 μg/mL, clone C17.8, BioXCell, catalog BE0051), and anti–IFN-γ (10 μg/mL, clone XMG1.2, BioXCell, catalog BE0055); for Th1 cells, these included IL-12 (10 ng/mL, GenScript, catalog Z03211-50) and anti–IL-4 (5 μg/mL, clone 11B11, BioXCell, catalog BE0045); for Th2 cells, these included IL-4 (50 ng/mL), anti–IFN-γ (20 μg /mL), anti–IL-12 (5 μg/mL), Th17 cells: IL-6 (20 ng/mL, EPOTO Biotech, catalog MF-1006), TGF-β (1 ng/mL), IL-1β (10 ng/mL, Peprotech, catalog AF-211-11B), anti–IFN-γ (10 μg/mL), anti–IL-12 (5 μg/mL), and anti–IL-4 (5 μg/mL); and for Tregs, these included TGF-β (3 ng/mL). After 3 days of initial culture, cells were either collected for downstream assays or continued in extended culture with refreshed cytokines to maintain lineage commitment.
(§3) Details regarding staining panels (human and mouse), reagents (including clones and catalog numbers), acquisition settings, compensation/controls, and analysis procedures are provided in Supplemental Methods.
(§4) BioLegend, Cat. No. 422301 or Mouse TruStain FcX™, BioLegend, Cat. No. 101319) for 10 minutes at 4°C. For surface marker detection, cells were stained with fluorochrome-conjugated monoclonal antibodies in 96-well V-bottom plates and incubated on ice for 30 minutes. After staining, cells were washed twice and resuspended in FACS buffer for analysis.
(§5) Prior to intracellular cytokine staining, cells were restimulated for 4 hours with PMA (Absin, Cat. No. abs9107), ionomycin (Sigma-Aldrich, Cat. No. I0634), and brefeldin A (MedChemExpress, Cat. No. HY-16592). For intracellular cytokine staining, cells were first surface-stained as described above, then fixed and permeabilized using the BD Cytofix/Cytoperm™ kit (BD Biosciences, Cat. No. 554714) according to the manufacturer ’s protocol. Intracellular proteins were stained with directly conjugated antibodies targeting IL-9, IL-17a, IL-4, IFN-γ, TNF-α, FOXP3, p-ZAP70, Perforin, and […]
(§6) Antibodies used for mouse samples included those against IL-9 (PE, clone RM9A4, Biolegend, Cat. No. 514104), IFN-γ (PE, clone XMG1.2, Biolegend, Cat. No.
(§7) Cat. No. 103138), CD4 (APC/Cy7, clone E-AB-F1353UJ, Elabscience, Cat. No.
(§8) AF18028), CD8α (PerCP/Cy5.5, clone E-AB-F1104UJ, Elabscience, Cat. No. […]
(§9) clone E-AB-F1187UH, Elabscience, Cat. No. AF19854), TNF-α (BV421, clone MP6-XT22, Biolegend, Cat. No. 506328), FOXP3 (PE, clone FJK-16s, eBioscience, Cat. No.
(§10) Perforin (APC, clone S16009A, Biolegend, Cat. No. 154303) and Granzyme B (APC, […]
(§11) clone QA16A02, Biolegend, Cat. No. 372203). […]

[2] = system: TNF-α in Th9 cells; assay: Flow cytometry of TNF-α in Th9 cells in vitro (Figure 3F, 5I, 7C, S8M-N); conditions: for TNF (flow cytometric quantification): Figure 5I, single agent, individual replicates, (n = 5); for TNF-α expression: MEK/ERK blockade, even with EpA, result in words
Experimental: as §1, §2, §3, §4, §5, §6, §7, §8, §9, §10, §11

[3] = system: PD-1 on Th9 cells; assay: Flow cytometry of PD-1 on Th9 cells in vitro (Figure 5K, 7E, S3D); conditions: for PD1 (flow cytometric quantification): Figure 5K, single agent, individual replicates, (n = 5); for PD-1 expression: MEK/ERK blockade, even with EpA, result in words
Experimental: as §1, §2, §3, §4, §5, §6, §7, §8, §9, §10, §11

[4] = system: Th9 cells; assay: IL-9+ Th9 cells with MEK or ERK inhibition (Figure 5H); conditions: for IL-9 (flow cytometric quantification): Figure 5H, single agent, individual replicates, (n = 5); for IL-9 production: trametinib 10 nM, temuterkib 100 nM, result in words
Experimental: (A) Identification and ranking of EpA-interacting proteins by affinity pulldown and LC-MS/MS, ordered by in silico binding energy predictions. […] (E) Flow-cytometric analysis of phosphorylated ZAP70 in Th9 cells 10 minutes after TCR activation (mean ± SEM, n = 3). (F) Pathway enrichment analysis of RNA-seq data showing MAPK/ERK-related pathways in EpA-treated Th9 cells. (G) Immunoblot analysis of total and phosphorylated MEK1/2 and ERK1/2 in control and EpA-treated Th9 cells. (H–L) Functional consequences of MEK or ERK inhibition in EpA-treated Th9 cells. […] Data in H–K are shown as mean ± SEM (n = 5) and in L as mean ± SEM (n = 3). Statistical significance was determined using 1-way ANOVA followed by Tukey’s test (E, H–L). *P < 0.05, **P < 0.01, ***P < 0.001, ****P < 0.0001.
as §2
The following pharmacological inhibitors were used at the indicated final concentrations: trametinib (MEK1/2 inhibitor; Selleck, catalog S4484) at 10 nM; temuterkib (ERK1/2 inhibitor; MCE, catalog HY-101494) at 100 nM; and fatostatin hydrobromide (SREBP inhibitor; MCE, catalog HY-14452A) at 5 μM. Dead cells were detected using Fixable Viability Dye eFluor 780 (eBioscience, catalog 65-0865).

[5] = system: mitochondria of Th9 cells; assay: Flow cytometry with MitoTracker Deep Red (Figure 4M, 5L, 7F, 7J); conditions: Figure 5L, single agent, individual replicates, (n = 3)
Experimental: […] Cells were incubated with the respective dyes, washed, and subjected to flow cytometry or fluorescence microscopy analysis. For ultrastructural assessment, mitochondrial number and diameter were quantified from high-resolution transmission electron microscopy (TEM) images using ImageJ software.

[6] = system: Th9 cells; assay: IL-9+ Th9 cells with oleic acid (S8I-J); conditions: OA 50 μM
Source text: LXR-α binding site ChREBP binding site USF1 binding site […] 2.1 1.8 2.1 […] 1.9 […] 20 20 0 […] + OA ✱✱✱✱ MIGR1 M Ctrl + OAEpA […] SREBP1 Ctrl SREBP1EpA ✱✱✱✱ ✱✱✱ 3 2 1 0 TNF-α MIGR1 SREBP1 […] SREBP1EpA Figure S8. EpA-associated modulation of lipid metabolism and its impact on Figure S8 Th9 cell function. (A-C) GSEA of RNA-seq data showing intracellular sterol transport (A), sterol transfer activity (B), and long-chain fatty acid transport (C) pathways in control and EpA-treated Th9 cells. […] (K and L) Flow-cytometric analysis of IL-9 expression in Th9 cells transduced with either control (MIGR1) or SREBP1- […]

Row | SMILES | CD69 (flow cytometric quantification) ([1]; listed as MEKin) | CD69 expression [1] | TNF (flow cytometric quantification) ([2]; listed as MEKin) | TNF-α expression [2] | PD1 (flow cytometric quantification) ([3]; listed as MEKin) | PD-1 expression [3] | IL-9 (flow cytometric quantification) ([4]; listed as MEKin) | IL-9 production [4] | Mito tracker (flow cytometric quantification) ([5]; listed as MEKin) | Th9 polarization with oleic acid ([6]; result in words) | IL-9 gate number ([6]; representative flow plot, Figure S8I, EpA 10 μM) | CD69 (flow cytometric quantification) ([1]; listed as ERKin) | TNF (flow cytometric quantification) ([2]; listed as ERKin) | PD1 (flow cytometric quantification) ([3]; listed as ERKin) | IL-9 (flow cytometric quantification) ([4]; listed as ERKin) | Mito tracker (flow cytometric quantification) ([5]; listed as ERKin)
1 | CC(=O)Nc1cccc(-n2c(=O)n(C3CC3)c(=O)c3c(Nc4ccc(I)cc4F)n(C)c(=O)c(C)c32)c1 [trametinib, reference compound] | 19.1 and 22.5 and 21.5 and 19.6 and 18.9 | significantly reduced | 1461 and 1480 and 1452 (2×) and 1443 | significantly reduced | 177 and 192 and 187 (2×) and 180 | significantly reduced | 0.7 and 0.66 and 0.89 and 0.62 and 0.69 | almost completely abrogated IL-9 production | 942 and 929 and 920 | – | – | – | – | – | – | –
2 | CCCCCCCC/C=C\CCCCCCCC(=O)O [oleic acid] | – | – | – | – | – | – | – | – | – | antagonizes Th9 polarization | 0.8 | – | – | – | – | –
3 | Cn1nccc1Nc1nccc(-c2cc3c(s2)C(C)(C)N(CCN2CCOCC2)C3=O)n1 [temuterkib, reference compound] | – | significantly reduced | – | significantly reduced | – | significantly reduced | – | almost completely abrogated IL-9 production | – | – | – | 21.9 and 20.8 and 21.6 (2×) and 21.7 | 1577 and 1578 and 1574 and 1552 and 1651 | 218 and 220 and 219 and 229 and 222 | 0.84 and 0.88 and 0.8 and 0.91 and 1 | 1115 (2×) and 1113
